The structures appear in SMILES notation.

For this test, the system named is PBMC from cirrhotic patients and healthy donors. Nature of the test: Western blot of LC3-II lipidation in PBMC. It is filed as cell-based, human. To be noted: 30 μM chloroquine diphosphate, data not shown. As to the method: Peripheral blood mononuclear cells (PBMC) and monocyte isolation. PBMC were prepared from the blood of cirrhotic patients and healthy donors, using Ficoll density gradient centrifugation (Ficoll Paque™-plus, GE Healthcare, 17-1440-02), as previously described^43.
Cell treatment. Human monocytes, THP1-XBlue™-CD14 (Invivogen, Catalog #thpx-cd14sp) and THP1-FcγRIIA+−CD14+(kindly provided by Novimmune) monocytes were used. When indicated cells were exposed to either 30 μM chloroquine diphosphate (Sigma, C6628), 10 mM 3-Methyladenine (3-MA, Sigma, M9281-100 mg), 10 mM Diphenyleneiodonium chloride (DPI, Sigma, D2926-10 mg), or 10 mg/ml IVIg (Privigen, 100 mg/ml) for 4 hrs at 37° C., as indicated. We also used commercially synthetized Tat-conjugated peptides (30 μM, GeneCust, Dudelange): i) the Tat-p22phox N8 peptide corresponding to eight N-terminal amino acids (3-10) of p22phox that blocks the Rubicon-p22phox interaction^19; ii) its control mutant Tat-N8W9A peptide, in which one tryptophan residue is replaced by Alanine^19). In some experiments, cells were exposed to the preformed complex (10 μg/ml of mouse anti-hFcγRII mAb (clone AT-10, Santa Cruz, sc-13527) F(ab′)2 fragments+20 μg/ml goat anti-mouse anti-kappa F(ab′)2 fragments (Southern Biotech, 1052-01) or to 100 μg/ml of anti-hFcγRIIA mAb F(ab′)2 fragments (clone IV.3), purified as we previously described^26. […]
In general terms: In western blotting, separated proteins are transferred to a membrane and probed.

Regarding `CCN(CC)CCCC(C)Nc1ccnc2cc(Cl)ccc12` (centres unmarked) [chloroquine, chloroquine diphosphate], the LC3-II lipidation result is “further enhanced” (PBMC from cirrhotic patients) and “affected more marginally” (cells from healthy donors).

Source of the values: patent US20220081481A1, “USE OF AGENTS CAPABLE OF INDUCING LC3-ASSOCIATED PHAGOCYTOSIS FOR TREATING SUSTAINED INFLAMMATION IN PATIENTS SUFFERING FROM CHRONIC LIVER DISEASE” (INSERM (INSTITUT NATIONAL DE LA SANTÉ ET DE LA RECHERCHE …, priority 2019, published 2022).
